Test results reported in PubChem BioAssay (NCI).
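Assay format: 96-well plates, 48-hour exposure. TGI is the concentration that stops growth completely.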

Key:
Test in all cases: NCI-60 cell line screen, 48 h
UACC-257 melanoma = test system: UACC-257 melanoma
DU-145 prostate = test system: DU-145 prostate
KM12 colon = test system: KM12 colon
786-0 renal = test system: 786-0 renal
IGROV1 ovarian = test system: IGROV1 ovarian
HOP-62 NSCLC = test system: HOP-62 NSCLC
A498 renal = test system: A498 renal
HT29 colon = test system: HT29 colon
T-47D breast = test system: T-47D breast
A549 NSCLC = test system: A549 NSCLC
MDA-N = test system: MDA-N
PC-3 prostate = test system: PC-3 prostate
UACC-62 melanoma = test system: UACC-62 melanoma
NCI/ADR-RES ovarian = test system: NCI/ADR-RES ovarian
SF-268 CNS = test system: SF-268 CNS
M14 melanoma = test system: M14 melanoma
MDA-MB-435 = test system: MDA-MB-435
HCT-15 colon = test system: HCT-15 colon
MOLT-4 leukemia = test system: MOLT-4 leukemia
SW-620 colon = test system: SW-620 colon
NCI-H522 lung = test system: NCI-H522 lung
U251 CNS = test system: U251 CNS
SK-MEL-28 melanoma = test system: SK-MEL-28 melanoma
OVCAR-4 ovarian = test system: OVCAR-4 ovarian
SN12C renal = test system: SN12C renal
OVCAR-8 ovarian = test system: OVCAR-8 ovarian
TK-10 renal = test system: TK-10 renal
HOP-92 NSCLC = test system: HOP-92 NSCLC
RPMI-8226 leukemia = test system: RPMI-8226 leukemia
LOX IMVI melanoma = test system: LOX IMVI melanoma
OVCAR-5 ovarian = test system: OVCAR-5 ovarian
OVCAR-3 ovarian = test system: OVCAR-3 ovarian
HS 578T breast = test system: HS 578T breast
SK-MEL-5 melanoma = test system: SK-MEL-5 melanoma
MDA-MB-231 breast = test system: MDA-MB-231 breast
NCI-H226 lung = test system: NCI-H226 lung
CCRF-CEM leukemia = test system: CCRF-CEM leukemia
CAKI-1 renal = test system: CAKI-1 renal
NCI-H23 lung = test system: NCI-H23 lung
SR leukemia = test system: SR leukemia
NCI-H460 lung = test system: NCI-H460 lung
HCC-2998 colon = test system: HCC-2998 colon
SNB-19 CNS = test system: SNB-19 CNS
MALME-3M melanoma = test system: MALME-3M melanoma
HCT-116 colon = test system: HCT-116 colon
UO-31 renal = test system: UO-31 renal
ACHN renal = test system: ACHN renal
BT-549 breast = test system: BT-549 breast
K-562 leukemia = test system: K-562 leukemia
RXF 393 renal = test system: RXF 393 renal
SK-MEL-2 melanoma = test system: SK-MEL-2 melanoma
EKVX NSCLC = test system: EKVX NSCLC
SF-295 CNS = test system: SF-295 CNS
HL-60(TB) leukemia = test system: HL-60(TB) leukemia
MCF7 breast = test system: MCF7 breast
SF-539 CNS = test system: SF-539 CNS
SNB-75 CNS = test system: SNB-75 CNS
SK-OV-3 ovarian = test system: SK-OV-3 ovarian
COLO 205 colon = test system: COLO 205 colon

O=C(O)c1cc2ccccc2c(Cc2c(O)c(C(=O)O)cc3ccccc23)c1O
TGI (UACC-257 melanoma): > 100 µM | TGI (DU-145 prostate): > 100 µM | TGI (KM12 colon): > 100 µM | TGI (786-0 renal): > 100 µM | TGI (IGROV1 ovarian): > 100 µM | TGI (HOP-62 NSCLC): > 100 µM | TGI (A498 renal): > 100 µM | TGI (HT29 colon): > 100 µM | TGI (T-47D breast): > 100 µM | TGI (A549 NSCLC): > 100 µM | TGI (MDA-N): > 100 µM | TGI (PC-3 prostate): > 100 µM | TGI (UACC-62 melanoma): > 100 µM | TGI (NCI/ADR-RES ovarian): > 100 µM | TGI (SF-268 CNS): > 100 µM | TGI (M14 melanoma): > 100 µM | TGI (MDA-MB-435): > 100 µM | TGI (HCT-15 colon): > 100 µM | TGI (MOLT-4 leukemia): > 100 µM | TGI (SW-620 colon): > 100 µM | TGI (NCI-H522 lung): > 100 µM | TGI (U251 CNS): > 100 µM | TGI (SK-MEL-28 melanoma): > 100 µM | TGI (OVCAR-4 ovarian): > 100 µM | TGI (SN12C renal): > 100 µM | TGI (OVCAR-8 ovarian): > 100 µM | TGI (TK-10 renal): > 100 µM | TGI (HOP-92 NSCLC): > 100 µM | TGI (RPMI-8226 leukemia): > 100 µM | TGI (LOX IMVI melanoma): > 100 µM | TGI (OVCAR-5 ovarian): > 100 µM | TGI (OVCAR-3 ovarian): > 100 µM | TGI (HS 578T breast): > 100 µM | TGI (SK-MEL-5 melanoma): > 100 µM | TGI (MDA-MB-231 breast): > 100 µM | TGI (NCI-H226 lung): > 100 µM | TGI (CCRF-CEM leukemia): > 100 µM | TGI (CAKI-1 renal): > 100 µM | TGI (NCI-H23 lung): > 100 µM | TGI (SR leukemia): > 100 µM | TGI (NCI-H460 lung): > 100 µM | TGI (HCC-2998 colon): > 100 µM | TGI (SNB-19 CNS): > 100 µM | TGI (MALME-3M melanoma): > 100 µM | TGI (HCT-116 colon): > 100 µM | TGI (UO-31 renal): > 100 µM | TGI (ACHN renal): > 100 µM | TGI (BT-549 breast): > 100 µM | TGI (K-562 leukemia): > 100 µM | TGI (RXF 393 renal): > 100 µM | TGI (SK-MEL-2 melanoma): > 100 µM | TGI (EKVX NSCLC): > 100 µM | TGI (SF-295 CNS): > 100 µM | TGI (HL-60(TB) leukemia): > 100 µM

CN(C)c1ccc(/C=C/C(=O)c2cc(C(C)(C)C)c(O)c(C(C)(C)C)c2)cc1
TGI (DU-145 prostate): 6.8 µM | TGI (KM12 colon): > 25.7 µM | TGI (786-0 renal): 8.03 µM | TGI (IGROV1 ovarian): > 100 µM | TGI (HOP-62 NSCLC): > 100 µM | TGI (A498 renal): > 100 µM | TGI (HT29 colon): > 30.2 µM | TGI (T-47D breast): > 100 µM | TGI (A549 NSCLC): > 100 µM | TGI (MDA-N): 0.69 µM | TGI (PC-3 prostate): > 100 µM | TGI (UACC-62 melanoma): > 100 µM | TGI (NCI/ADR-RES ovarian): 6.64 µM | TGI (SF-268 CNS): > 52.1 µM | TGI (M14 melanoma): > 51.7 µM | TGI (MDA-MB-435): 1.87 µM | TGI (HCT-15 colon): > 100 µM | TGI (MOLT-4 leukemia): > 100 µM | TGI (SW-620 colon): > 100 µM | TGI (NCI-H522 lung): 6 µM | TGI (U251 CNS): 5.79 µM | TGI (MCF7 breast): > 100 µM | TGI (SK-MEL-28 melanoma): > 100 µM | TGI (OVCAR-4 ovarian): > 100 µM | TGI (SN12C renal): > 38.7 µM | TGI (OVCAR-8 ovarian): > 100 µM | TGI (SF-539 CNS): 1.8 µM | TGI (TK-10 renal): > 43.1 µM | TGI (HOP-92 NSCLC): > 100 µM | TGI (RPMI-8226 leukemia): 8.63 µM | TGI (LOX IMVI melanoma): > 100 µM | TGI (OVCAR-5 ovarian): > 30.2 µM | TGI (SNB-75 CNS): 0.856 µM | TGI (HS 578T breast): > 100 µM | TGI (SK-OV-3 ovarian): > 100 µM | TGI (SK-MEL-5 melanoma): 16.5 µM | TGI (MDA-MB-231 breast): 8.69 µM | TGI (NCI-H226 lung): > 65.9 µM | TGI (CCRF-CEM leukemia): > 25.7 µM | TGI (CAKI-1 renal): > 58.5 µM | TGI (NCI-H23 lung): > 100 µM | TGI (NCI-H460 lung): 2.39 µM | TGI (HCC-2998 colon): 3.67 µM | TGI (SNB-19 CNS): > 100 µM | TGI (MALME-3M melanoma): > 100 µM | TGI (HCT-116 colon): 24.4 µM | TGI (COLO 205 colon): 2.65 µM | TGI (UO-31 renal): > 100 µM | TGI (ACHN renal): > 100 µM | TGI (BT-549 breast): > 100 µM | TGI (K-562 leukemia): > 100 µM | TGI (RXF 393 renal): 0.511 µM | TGI (SK-MEL-2 melanoma): > 100 µM | TGI (EKVX NSCLC): > 100 µM | TGI (SF-295 CNS): 5.33 µM | TGI (HL-60(TB) leukemia): > 24.4 µM
